Test results: patent publication US8633019B2, “Methods for treating spinal muscular atrophy” (PTC Therapeutics, Inc., priority 2008, dated 2014)

System: inclusion of exon 7 of SMN2 into mRNA transcribed from the SMN2-A minigene
Assay: Fold Activation: luciferase reporter, SMN2-A minigene construct versus SMN2-G minigene construct, in stably transfected HEK293H cells
Assay type: cell-based, human
Settings: ratio of First Activation using the SMN2-A construct divided by Second Activation using the SMN2-G construct
Text: In a specific embodiment, the first cell and the second cell are the same cell type. In some embodiments, the first cell and the second cell are the same cell type and are obtained from the same source or clone. In some embodiments, the first reporter gene and the second reporter gene are the same reporter gene. In other embodiments, the first reporter gene and second reporter gene are different reporter genes. A compound that increases the inclusion of exon 7 of SMN2 into mRNA transcribed from the SMN2 gene will result in a Fold Activation derived from a higher ratio of the First Activation:
[formula] [formula] [formula] In some embodiments, both the amount and activity of the first and second fusion proteins are detected. Accordingly, as used herein, the Fold Activation for a compound that modulates the inclusion of exon 7 of SMN2 into mRNA transcribed from the SMN2 gene is a ratio of the First Activation divided by the Second Activation.
The HEK293H cell line stably transfected with the SMN2-A minigene construct was utilized in the HTS. HTS was performed by plating 10,000 cells in each well of a 384-well plate. Each 384-well plate contained 64 control wells used as an internal standard: 16 wells were used as a total control (no test compound, only compound solvent), 16 wells were used as reference standards representing background readings (high inhibitor concentration) and 32 wells were prepared to provide an 8-point dose response curve of puromycin as a non-specific standard control inhibitor. The remaining 320 wells contained individual test compounds. The cells were grown overnight in the presence of test compounds or controls at 37° C. in 5% CO2. After 24 hours, the amount of luminescence was determined using a ViewLux Imaging system (Perkin Elmer).
Using the SMN2-A minigene construct, a HTS was performed testing a compound library. The amount of the fusion protein expressed from the minigene construct was determined by measuring luciferase activity as described herein. […] Enhancers of fusion protein expression were defined as those compounds that increased luciferase activity by at least three standard deviations above the mean. Based on this analysis, test compounds of Formula (I) were identified as hits and were subsequently confirmed by testing the compounds under the same conditions as in the original HTS. To ensure that the increase in luciferase activity detected in the HTS was due to increased inclusion of exon 7 of SMN2 into mRNA transcripts from the SMN2-A minigene construct, each compound was tested in two different cell lines: the cell line, which was used in the original HTS (HEK293H containing the SMN2-A minigene construct), and a HEK293H cell line that contained the SMN2-G minigene construct.
Each compound was tested at four concentrations: 15 μM, 3 μM, 0.6 μM, 0.12 μM.
The Fold Activation results are provided as a ratio of a First Activation using the SMN-2A construct divided by a Second Activation using the SMN-2G construct, wherein 1 star (*) represents active compounds with a fold increase ratio between 1.1-1.3; 2 stars (**) represent active compounds with a fold increase ratio between 1.3-2.0; 3 stars (***) represent active compounds with a fold increase ratio greater than 2.0.

| SMILES | Activity (Fold Activation) |
| --- | --- |
| O=C(O)c1ccc2nc(-c3ccccc3F)oc2c1 [Cpd 66, 2-(2-fluoro-phenyl)-benzooxazole-6-carboxylic acid] | *** (3 stars (***) represent active compounds with a fold increase ratio greater than 2.0) |
| Cc1cc(-c2nc3ccc(C(=O)O)cc3o2)c(C)o1 [Cpd 67, 2-(2,5-dimethyl-furan-3-yl)-benzooxazole-6-carboxylic acid] | ** (2 stars (**) represent active compounds with a fold increase ratio between 1.3-2.0) |
| O=C(O)c1ccc2nc(-c3cccnc3)oc2c1 [Cpd 69, 2-pyridin-3-yl-benzooxazole-6-carboxylic acid] | * (1 star (*) represents active compounds with a fold increase ratio between 1.1-1.3) |
| O=C(O)c1cccc(-c2nc3ccc(C(=O)N4CCCC4)cc3o2)c1 [Cpd 71, 3-[6-(pyrrolidine-1-carbonyl)-benzooxazol-2-yl]-benzoic acid] | ** (2 stars (**) represent active compounds with a fold increase ratio between 1.3-2.0) |
| NC(=O)c1cccc(-c2nc3ccc(NCCc4ccccc4)cc3o2)c1 [Cpd 73, 3-(6-phenethylamino-benzooxazol-2-yl)-benzamide] | * (1 star (*) represents active compounds with a fold increase ratio between 1.1-1.3) |
| Cc1cc(-c2nc3cc(C(=O)O)ccc3o2)c(C)o1 [Cpd 77, 2-(2,5-dimethyl-furan-3-yl)-benzooxazole-5-carboxylic acid] | * (1 star (*) represents active compounds with a fold increase ratio between 1.1-1.3) |
| CN1CCCN(c2ccc3nc(-c4cccc(C(=O)O)c4)oc3c2)CC1 [Cpd 81, 3-[6-(4-methyl-[1,4]diazepan-1-yl)-benzooxazol-2-yl]-benzoic acid] | * (1 star (*) represents active compounds with a fold increase ratio between 1.1-1.3) |
| O=C(O)c1cccc(-c2nc3ccc(Oc4ccccc4)cc3o2)c1 [Cpd 82, 3-(6-phenoxy-benzooxazol-2-yl)-benzoic acid] | ** (2 stars (**) represent active compounds with a fold increase ratio between 1.3-2.0) |
| O=C(O)c1ccc2oc(-c3ccc(N4CCCC4)nc3)nc2c1 [Cpd 89, 2-(6-pyrrolidin-1-yl-pyridin-3-yl)-benzooxazole-5-carboxylic acid] | *** (3 stars (***) represent active compounds with a fold increase ratio greater than 2.0) |
| O=C(O)c1ccc2oc(-c3ccc(N4CCOCC4)nc3)nc2c1 [Cpd 90, 2-(6-morpholin-4-yl-pyridin-3-yl)-benzooxazole-5-carboxylic acid] | ** (2 stars (**) represent active compounds with a fold increase ratio between 1.3-2.0) |
| O=C(O)c1ccc2oc(-c3ccc(N4CCCCC4)nc3)nc2c1 [Cpd 91, 2-(3,4,5,6-tetrahydro-2H-[1,2′]bipyridinyl-5′-yl)-benzooxazole-5-carboxylic acid] | ** (2 stars (**) represent active compounds with a fold increase ratio between 1.3-2.0) |
| O=C(O)c1ccc2nc(-c3ccc(N4CCC4)nc3)oc2c1 [Cpd 93, 2-(6-azetidin-1-yl-pyridin-3-yl)-benzooxazole-6-carboxylic acid] | ** (2 stars (**) represent active compounds with a fold increase ratio between 1.3-2.0) |
| O=C(O)c1ccc2oc(-c3ccc(OC(F)(F)F)cc3)nc2c1 [Cpd 100, 2-(4-trifluoromethoxy-phenyl)-benzooxazole-5-carboxylic acid] | ** (2 stars (**) represent active compounds with a fold increase ratio between 1.3-2.0) |
| CN(Cc1ccccc1)c1ccc2nc(-c3cccc(C(=O)O)c3)oc2c1 [Cpd 102, 3-[6-(benzyl-methyl-amino)-benzooxazol-2-yl]-benzoic acid] | ** (2 stars (**) represent active compounds with a fold increase ratio between 1.3-2.0) |
| O=C(O)c1ccc2oc(-c3cccc(OC(F)(F)F)c3)nc2c1 [Cpd 105, 2-(3-trifluoromethoxy-phenyl)-benzooxazole-5-carboxylic acid] | * (1 star (*) represents active compounds with a fold increase ratio between 1.1-1.3) |
| NC(=O)c1cccc(-c2nc3ccc(Nc4ccccc4)cc3o2)c1 [Cpd 106, 3-(6-phenylamino-benzooxazol-2-yl)-benzamide] | * (1 star (*) represents active compounds with a fold increase ratio between 1.1-1.3) |
| NC(=O)c1cccc(-c2nc3ccc(N4CCCCC4)cc3o2)c1 [Cpd 110, 3-(6-piperidin-1-yl-benzooxazol-2-yl)-benzamide] | * (1 star (*) represents active compounds with a fold increase ratio between 1.1-1.3) |
| COc1ccc2nc(-c3cccc(C(N)=O)c3)oc2c1 [Cpd 111, 3-(6-methoxy-benzooxazol-2-yl)-benzamide] | ** (2 stars (**) represent active compounds with a fold increase ratio between 1.3-2.0) |
| Cc1ccc2nc(-c3cccc(C(N)=O)c3)oc2c1 [Cpd 112, 3-(6-methyl-benzooxazol-2-yl)-benzamide] | ** (2 stars (**) represent active compounds with a fold increase ratio between 1.3-2.0) |
| CC(=O)Nc1ccc2oc(-c3ccc(Br)c(C)c3)nc2c1 [Cpd 128, N-[2-(4-bromo-3-methyl-phenyl)-benzooxazol-5-yl]-acetamide] | *** (3 stars (***) represent active compounds with a fold increase ratio greater than 2.0) |
